Laboratory results: PubChem BioAssay AID1259411 (Chemical Carcinogenesis Research Information System (CCRIS), 2018)
Activity calls are given as the source filed them. No rule for the calls is given here.

Test system: rodent carcinogenicity bioassays, tumor incidence
Test: CCRIS carcinogenicity studies
In short: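 NCI-built, expert-reviewed records of carcinogenicity and related test outcomes (mutagenicity, tumor promotion/inhibition) compiled from published and report sources, historical span 1985-2011, not updated.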

Cc1c(N)nc([C@H](CC(N)=O)NC[C@H](N)C(N)=O)nc1C(=O)N[C@H](C(=O)N[C@H](C)[C@@H](O)[C@H](C)C(=O)N[C@H](C(=O)NCCc1nc(-c2nc(C(=O)NCCCN[C@@H](C)c3ccccc3)cs2)cs1)[C@@H](C)O)[C@@H](O[C@@H]1O[C@@H](CO)[C@@H](O)[C@H](O)[C@@H]1O[C@H]1O[C@H](CO)[C@@H](O)[C@H](OC(N)=O)[C@@H]1O)c1cnc[nH]1
carcinogen call (Species: RAT, Strain/Sex: SPRAGUE-DAWLEY/FEMALE, Route: SUBCUTANEOUS, Dose: 0, 0.32, 0.63, 1.25, 2.50, 5.0 MG/KG IN SALINE 1/WK FOR 10 WK THEN 1/2 WK FOR 12 WK, 19 WK OR LIFETIME (STUDY DURATION:, Dose: 0, 0.32, 0.63, 1.25, 2.50, 5.0 MG/KG IN SALINE 1/WK FOR 10 WK THEN 1/2 WK FOR 12 WK, 19 WK OR LIFETIME (STUDY DURATION:, Tumor Site: Type of Lesion: KIDNEY: MALIGNANT OR BENIGN TUMOR, INJECTION SITE: MALIGNANT TUMOR): active; positive
carcinogen call (Species: RAT, Strain/Sex: SPRAGUE-DAWLEY/MALE, Route: SUBCUTANEOUS, Dose: 0, 0.32, 0.63, 1.25, 2.50, 5.0 MG/KG IN SALINE 1/WK FOR 10 WK THEN 1/2 WK FOR 12 WK, 19 WK OR LIFETIME (STUDY DURATION:, Dose: 0, 0.32, 0.63, 1.25, 2.50, 5.0 MG/KG IN SALINE 1/WK FOR 10 WK THEN 1/2 WK FOR 12 WK, 19 WK OR LIFETIME (STUDY DURATION:, Tumor Site: Type of Lesion: KIDNEY: MALIGNANT OR BENIGN TUMOR, INJECTION SITE: MALIGNANT TUMOR): active; positive

Nc1ccc(Cc2ccc(N)c(Cl)c2)cc1Cl
carcinogen call (Species: MOUSE, Route: ORAL, Tumor Site: Type of Lesion: BLOOD VESSELS, LIVER): active; positive
carcinogen call (Species: RAT, Route: ORAL, Tumor Site: Type of Lesion: LIVER, LUNG): active; positive
carcinogen call (Species: RAT, Route: SUBCUTANEOUS, Tumor Site: Type of Lesion: LIVER, LUNG): active; positive
carcinogen call (Species: RAT, Strain/Sex: STRAIN-CD/FEMALE, Route: ORAL, Dose: 0, 1000 PPM IN PROTEIN-ADEQUATE (23%) DIET FOR 2 YR (STUDY DURATION: 2 YR), Tumor Site: Type of Lesion: LUNG: ADENOCARCINOMA): active; positive
carcinogen call (Species: RAT, Strain/Sex: STRAIN-CD/FEMALE, Route: ORAL, Dose: 0, 1000 PPM IN PROTEIN-DEFICIENT (7%) DIET FOR 16 MO (STUDY DURATION: 16 MO), Tumor Site: Type of Lesion: LUNG: ADENOCARCINOMA, MAMMARY GLAND: ADENOCARCINOMA): active; positive
carcinogen call (Species: RAT, Strain/Sex: STRAIN-CD/MALE, Route: ORAL, Dose: 0, 1000 PPM IN PROTEIN-ADEQUATE (23%) DIET FOR 2 YR (STUDY DURATION: 2 YR), Tumor Site: Type of Lesion: LUNG: ADENOCARCINOMA): active; positive
carcinogen call (Species: RAT, Strain/Sex: STRAIN-CD/MALE, Route: ORAL, Dose: 0, 1000 PPM IN PROTEIN-DEFICIENT (7%) DIET FOR 16 MO (STUDY DURATION: 16 MO), Tumor Site: Type of Lesion: LUNG: ADENOCARCINOMA, LIVER: HEPATOCELLULAR ADENOMA, HEPATOCELLULAR CARCINOMA): active; positive

C/C=C/c1ccc(OC)cc1
carcinogen call (Species: MOUSE, Strain/Sex: B6C3F1/MALE, Route: INTRAPERITONEAL, Dose: 0, 0.5 UMOL/G BW ONCE (STUDY DURATION: 10-11 MONTHS)): inactive; negative
carcinogen call (Species: MOUSE, Strain/Sex: CD-1/FEMALE, Route: DERMAL, Dose: 0, 5 UMOL 1X/WK FOR 3 WK BEGINNING 24 HR POST FIRST TPA DOSE (2.5 UG IN 0.1 ML ACETONE), FOLLOWED BY 2.5 UG TPA IN 0.1 M, Tumor Site: Type of Lesion: SKIN: PAPILLOMA): inactive; negative
carcinogen call (Species: RAT, Strain/Sex: SPRAGUE-DAWLEY/FEMALE, Route: ORAL, Dose: 0, 0.25, 0.5, 1% IN DIET FOR 117 WK (STUDY DURATION: 121 WK), Dose: 0, 0.25, 0.5, 1% IN DIET FOR 117 WK (STUDY DURATION: 121 WK), Tumor Site: Type of Lesion: LIVER: HEPTOCELLULAR CARCINOMA): active; positive
carcinogen call (Species: RAT, Strain/Sex: SPRAGUE-DAWLEY/MALE, Route: ORAL, Dose: 0, 0.25, 0.5, 1.0% IN DIET FOR 117 WK (STUDY DURATION: 121 WK), Dose: 0, 0.25, 0.5, 1.0% IN DIET FOR 117 WK (STUDY DURATION: 121 WK)): inactive; negative

Oc1ccc2ccc3c4ccc5ccccc5c4c4c(c3c2c1O)O4
carcinogen call (Species: MOUSE, Strain/Sex: ICR/FEMALE, Route: INTRAPERITONEAL, Dose: 0, 25 NMOL (TOTAL DOSE) ADMINISTERED IN DOSES OF 1/7, 2/7, AND 4/7 ON DAYS 1, 7, AND 15 OF LIFE, RESPECTIVELY (STUDY DUR, Tumor Site: Type of Lesion: LUNG: TUMOR): active; positive
carcinogen call (Species: MOUSE, Strain/Sex: ICR/FEMALE, Route: INTRAPERITONEAL, Dose: 0, 25 NMOL TOTAL DOSE INJECTED IN DOSES OF 1/7 ON DAY 1, 2/7 ON DAY 8, AND 4/7 ON DAY 15 OF LIFE (STUDY DURATION: 35 WK), Tumor Site: Type of Lesion: LIVER: TUMOR, LUNG: TUMOR): active; positive
carcinogen call (Species: MOUSE, Strain/Sex: ICR/MALE, Route: INTRAPERITONEAL, Dose: 0, 25 NMOL (TOTAL DOSE) ADMINISTERED IN DOSES OF 1/7, 2/7, AND 4/7 ON DAYS 1, 7, AND 15 OF LIFE, RESPECTIVELY (STUDY DUR, Tumor Site: Type of Lesion: LUNG: TUMOR, LIVER: TUMOR): active; positive
carcinogen call (Species: MOUSE, Strain/Sex: ICR/MALE, Route: INTRAPERITONEAL, Dose: 0, 25 NMOL TOTAL DOSE INJECTED IN DOSES OF 1/7 ON DAY 1, 2.7 ON DAY 8, AND 4/7 ON DAY 15 OF LIFE (STUDY DURATION: 35 WK), Tumor Site: Type of Lesion: LUNG:TUMOR, LIVER: TUMOR): active; positive
carcinogen call (Species: RAT, Strain/Sex: CD-1/FEMALE, Route: INJECTION, Dose: 0, 0.2 UMOL IN 0.1 ML DMSO INJECTED BENEATH EACH OF THE 6 NIPPLES ON THE LEFT SIDE (STUDY DURATION: 41 WK), Tumor Site: Type of Lesion: MAMMARY GLAND: TUMOR): active; positive
carcinogen call (Species: RAT, Strain/Sex: STRAIN-CD/FEMALE, Route: INJECTION, Dose: 0, 0.2 UMOL IN 0.1 ML DMSO INJECTED UNDER EACH OF THE 3 LEFT THORACIC NIPPLES FOLLOWED THE NEXT DAY BY SIMILAR TREATMENT, Tumor Site: Type of Lesion: MAMMARY GLAND: TUMOR): active; positive

c1ccc2c(c1)[nH]c1ccccc12
carcinogen call (Species: MOUSE, Strain/Sex: B6C3F1/FEMALE, Route: ORAL, Dose: 0.15, 0.3, 0.6% IN DIET FOR 96 WK, Dose: 0.15, 0.3, 0.6% IN DIET FOR 96 WK, Tumor Site: Type of Lesion: LIVER: HEPATOCELLULAR CARCINOMA): active; positive
carcinogen call (Species: MOUSE, Strain/Sex: B6C3F1/MALE, Route: ORAL, Dose: 0.15, 0.3, 0.6% IN DIET FOR 96 WK, Dose: 0.15, 0.3, 0.6% IN DIET FOR 96 WK, Tumor Site: Type of Lesion: FORESTOMACH: PAPILLOMA, SQUAMOUS CELL CARCINOMA, LIVER: HEPATOCELLULAR CARCINOMA): active; positive
carcinogen call (Species: MOUSE, Strain/Sex: CD-1/FEMALE, Route: INTRAPERITONEAL, Dose: 0, 1.75 UMOL/MOUSE (TOTAL DOSE) ADMINISTERED DURING DAYS 1, 8, AND 15 OF LIFE (STUDY DURATION: 52 WK)): inactive; negative
carcinogen call (Species: MOUSE, Strain/Sex: CD-1/MALE, Route: INTRAPERITONEAL, Dose: 0, 1.75 UMOL/MOUSE (TOTAL DOSE) ADMINISTERED DURING DAYS 1, 8, AND 15 OF LIFE (STUDY DURATION: 52 WK)): inactive; negative

Cc1ccc(Cl)cc1N
carcinogen call (Species: MOUSE, Strain/Sex: B6C3F1/FEMALE, Route: ORAL, Dose: 0, 2000, 4000 PPM IN DIET, Dose: 0, 2000, 4000 PPM IN DIET, Tumor Site: Type of Lesion: BLOOD VESSELS: HEMANGIOSARCOMA, LIVER: HEPATOCELLULAR ADENOMA OR CARCINOMA): active; positive
carcinogen call (Species: MOUSE, Strain/Sex: B6C3F1/MALE, Route: ORAL, Dose: 0, 2000, 4000 PPM IN DIET, Dose: 0, 2000, 4000 PPM IN DIET, Tumor Site: Type of Lesion: BLOOD VESSELS: HEMANGIOSARCOMA, LIVER: HEPATOCELLULAR ADENOMA OR CARCINOMA): active; positive
carcinogen call (Species: RAT, Strain/Sex: F344/FEMALE, Route: ORAL, Dose: 0, 2500, 5000 PPM IN DIET, Dose: 0, 2500, 5000 PPM IN DIET): inactive; negative
carcinogen call (Species: RAT, Strain/Sex: F344/MALE, Route: ORAL, Dose: 0, 2500, 5000 PPM IN DIET, Dose: 0, 2500, 5000 PPM IN DIET): inactive; negative

CN(C)c1ccc(C(=C2C=CC(=[N+](C)C)C=C2)c2ccccc2)cc1
carcinogen call (Species: MOUSE, Strain/Sex: B6C3F1/FEMALE, Route: ORAL (DIET), Dose: 0, 100, 225, 450 PPM IN DIET FOR 2 YRS, Dose: 0, 100, 225, 450 PPM IN DIET FOR 2 YRS): inactive; negative
carcinogen call (Species: RAT, Strain/Sex: F344/N/FEMALE, Route: ORAL (DIET), Dose: 0, 100, 300, 600 PPM IN DIET FOR 2 YRS, Dose: 0, 100, 300, 600 PPM IN DIET FOR 2 YRS, Tumor Site: Type of Lesion: THYROID: FOLLICULAR CELL ADENOMA OR CARCINOMA, LIVER: HEPATOCELLULAR ADENOMA, MAMMARY GLAND: CARCINOMA, Tumor Site: Type of Lesion: THYROID: FOLLICULAR CELL ADENOMA OR CARCINOMA, LIVER: HEPATOCELLULAR ADENOMA, MAMMARY GLAND: CARCINOMA): equivocal; none of the tumor incidences reached statistical significance; in som
